Assay type in all cases: cell-based
In one experiment the target is T1, Caspase1 (Homo sapiens, UniProt P29466).
T1 construct: each full-length Caspase construct was expressed (for Caspases-1, 2, 3, 4, 5, 6, 7, and 9) at high levels; FLAG (C); HA (N); expressed in transfected cells; host or cells: Saccharomyces cerevisiae (EGY48)
T1 sequence (P29466 1-404): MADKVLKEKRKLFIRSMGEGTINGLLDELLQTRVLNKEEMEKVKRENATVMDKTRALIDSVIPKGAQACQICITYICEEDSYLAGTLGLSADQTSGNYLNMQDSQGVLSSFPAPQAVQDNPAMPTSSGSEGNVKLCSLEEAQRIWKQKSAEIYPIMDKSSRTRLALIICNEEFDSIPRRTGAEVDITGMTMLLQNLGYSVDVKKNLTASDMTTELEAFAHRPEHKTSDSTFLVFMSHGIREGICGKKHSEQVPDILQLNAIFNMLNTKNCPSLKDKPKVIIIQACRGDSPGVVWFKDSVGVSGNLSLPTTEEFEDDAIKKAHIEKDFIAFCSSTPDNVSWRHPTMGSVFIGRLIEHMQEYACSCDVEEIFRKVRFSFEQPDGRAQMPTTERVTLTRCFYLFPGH
In words: yeast 384 well β-galactosidase reporter assay, Caspase1 expressed alone. Particulars: Caspase1 in yeast, 384 well β-galactosidase activity assay. The source says: (§1) When converting the yeast-based protease reporter system to HTS assay, conditions from agar plates to liquid medium in microtiter wells must be revised. This revision comprises, utilizing the measured β-galactosidase produced by yeast carrying the Caspase-cleavable reporter proteins, and assaying the colorimetric product (OD620nm) derived from X-gal substrate in 384 well plates, as a measure of the lacZ reporter gene activity. We compared β-galactosidase activity produced in the presence or absence of the broad-spectrum caspase inhibitory compound, zVAD-fmk ([…]-Valinyl-Alaninyl-Aspartyl-fluoromethylketone). […] Note that it was determined that it is not advisible to employ glucose in yeast media because it represses the GAL1 promoter used in some plasmids. […]
(§2) Yeast expressing various Caspases alone (at high levels) or in combination with upstream activators (at low levels) and cleavable substrates containing appropriate tetrapeptides reorganized by these proteases were used in 384 well β-galactosidase activity assays to assess inhibition by zVAD-fmk. The compound was titrated into assays at various concentrations and percentage inhibition was determined.
(§3) Assays were performed in a total volume of […] in triplicate. […] Absorbance at 620 nm was measured 2-3 days after culture at 30° C.
Background: A reporter such as luciferase makes a cellular process visible.

In experiment [1] the target is T2, Caspase1 activated with Asc (Homo sapiens, UniProt P29466).
T2 construct: Caspase (all full-length zymogen proforms) expression plasmids; FLAG (C); expressed in transfected cells; host or cells: Saccharomyces cerevisiae (EGY191 or EGY48)
T2 sequence (P29466 120-297 limits assumed): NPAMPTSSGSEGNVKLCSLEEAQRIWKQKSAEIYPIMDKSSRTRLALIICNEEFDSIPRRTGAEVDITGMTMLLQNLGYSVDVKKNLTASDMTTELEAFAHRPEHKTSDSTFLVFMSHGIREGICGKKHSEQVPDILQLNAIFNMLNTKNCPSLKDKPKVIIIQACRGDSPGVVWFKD
T2 sequence (P29466 317-404 limits assumed): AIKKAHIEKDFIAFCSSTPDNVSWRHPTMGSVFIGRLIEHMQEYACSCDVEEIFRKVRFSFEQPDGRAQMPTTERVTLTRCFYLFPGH
The experiment is described as follows: yeast 384 well β-galactosidase reporter assay, Caspase1 activated with Asc. The following applies: Caspase1 activated with Asc in yeast, 384 well β-galactosidase activity assay.
Excerpt: as §1, §2, §3

A further experiment deals with T3, Caspase6 (Homo sapiens, UniProt P55212).
T3 construct: each full-length Caspase construct was expressed (for Caspases-1, 2, 3, 4, 5, 6, 7, and 9) at high levels; HA (N); expressed in transfected cells; host or cells: Saccharomyces cerevisiae (EGY48)
T3 sequence (P55212 1-293): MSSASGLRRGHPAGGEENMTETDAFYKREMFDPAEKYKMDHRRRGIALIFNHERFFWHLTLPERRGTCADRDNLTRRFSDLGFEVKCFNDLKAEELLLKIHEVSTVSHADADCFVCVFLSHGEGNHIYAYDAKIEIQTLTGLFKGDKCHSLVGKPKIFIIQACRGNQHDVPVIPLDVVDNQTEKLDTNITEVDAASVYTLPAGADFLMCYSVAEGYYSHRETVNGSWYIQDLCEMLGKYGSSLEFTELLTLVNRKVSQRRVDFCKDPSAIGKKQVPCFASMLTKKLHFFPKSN
In words: yeast 384 well β-galactosidase reporter assay, Caspase6. Particulars: Caspase6 in yeast, 384 well β-galactosidase activity assay.
Excerpt: as §1, §2, §3

Experiment [2] deals with T4, Caspase8 activated with FADD + Fas (Homo sapiens, UniProt Q14790).
T4 construct: a small amount of each full-length Caspase construct was expressed with a large amount of adaptor protein FADD; HA (C); expressed in transfected cells; host or cells: Saccharomyces cerevisiae EGY48
In words: yeast 384 well β-galactosidase reporter assay, Caspase8 activated with FADD + Fas. The following applies: Caspase8 activated with FADD + Fas in yeast, 384 well β-galactosidase activity assay.
Excerpt: as §1, §2, §3

In experiment [3] the target is T5, Caspase9 activated with Apaf* (Homo sapiens, UniProt P55211).
T5 construct: Caspase (all full-length zymogen proforms) expression plasmids; HA (N); expressed in transfected cells; host or cells: Saccharomyces cerevisiae EGY48
T5 sequence (P55211 1-416): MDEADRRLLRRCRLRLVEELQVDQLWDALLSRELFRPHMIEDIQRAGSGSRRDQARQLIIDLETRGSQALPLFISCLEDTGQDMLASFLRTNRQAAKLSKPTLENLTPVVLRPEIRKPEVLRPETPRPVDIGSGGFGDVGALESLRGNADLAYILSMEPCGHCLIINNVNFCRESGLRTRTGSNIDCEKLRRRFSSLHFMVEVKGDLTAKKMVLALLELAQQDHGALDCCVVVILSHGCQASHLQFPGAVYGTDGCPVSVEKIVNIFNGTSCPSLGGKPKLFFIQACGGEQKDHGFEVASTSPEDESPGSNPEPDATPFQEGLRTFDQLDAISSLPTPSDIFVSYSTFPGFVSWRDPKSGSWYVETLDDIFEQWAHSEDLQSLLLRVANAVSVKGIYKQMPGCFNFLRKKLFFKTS
The experiment is described as follows: yeast 384 well β-galactosidase reporter assay, Caspase9 activated with Apaf*. Particulars: Caspase9 activated with Apaf* in yeast, 384 well β-galactosidase activity assay.
Excerpt: as §1, §2, §3

T4 sequence (Q14790 217-374 limits assumed): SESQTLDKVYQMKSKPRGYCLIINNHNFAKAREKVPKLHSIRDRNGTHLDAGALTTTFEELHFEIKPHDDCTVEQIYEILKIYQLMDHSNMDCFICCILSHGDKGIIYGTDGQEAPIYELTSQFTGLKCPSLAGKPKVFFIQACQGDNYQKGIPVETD
T4 sequence (Q14790 385-479 limits assumed): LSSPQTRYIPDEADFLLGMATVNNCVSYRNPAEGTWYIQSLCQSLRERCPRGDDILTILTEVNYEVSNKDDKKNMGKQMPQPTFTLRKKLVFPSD

Usually IC50 stands for the concentration that gives 50% inhibition. Consider “benzoyl-Valinyl-Alaninyl-Aspartyl-fluoromethylketone [zVAD-fmk]”, for which the half-inhibitory concentration (IC50) on Caspase1 was 3.07 µM; in experiment [1], 1 µM; at Caspase6 it was 6.78 µM; in experiment [2] it was 5.42 µM; in experiment [3] it was 10.7 µM.

The record behind these values is US20100028892A1, “YEAST BASED EXPRESSION OF PROTEASES AND METHODS OF USE” (Burnham Institute for Medical Research, priority 2008, published 2010).
